In ChEMBL document CHEMBL1147949, “Potent anti-obese principle from Rosa canina: structural requirements and mode of action of trans-tiliroside” (2007):
Values joined by “and” are separate entries in the source; they are usually repeats but may differ in a detail not shown here. Equal values may be shown once. Active and inactive are the calls of the source. The calls are words filed in the database; no cut-off is given here.

What was measured:
Mus musculus [1] = assay: Effect on food intake in ddY mouse at 10 mg/kg/day, po after 14 to 15 days; type: functional
Mus musculus [2] = assay: Reduction of paranephric fat in ddY mouse at 10 mg/kg/day, po after 14 to 15 days; type: functional
Mus musculus [3] = assay: Effect on total plasma cholesterol in ddY mouse at 10 mg/kg/day, po after 14 to 15 days; type: functional
Mus musculus [4] = assay: Effect on liver triglyceride in ddY mouse at 10 mg/kg/day, po after 14 to 15 days; type: functional
Mus musculus [5] = assay: Reduction of epididymal fat in ddY mouse at 10 mg/kg/day, po after 14 to 15 days; type: functional
Mus musculus [6] = assay: Effect on free fatty acid in ddY mouse plasma at 10 mg/kg/day, po after 14 to 15 days; type: functional
Mus musculus [7] = assay: Effect on D-glucose level in ddY mouse plasma at 0.1 to 10 mg/kg/day for 15 days; type: functional
Mus musculus [8] = assay: Reduction of mesenteric fat in ddY mouse at 10 mg/kg/day, po after 14 to 15 days; type: functional
Mus musculus [9] = assay: Effect on plasma triglyceride in ddY mouse at 10 mg/kg/day, po after 14 to 15 days; type: functional
Mus musculus [10] = assay: Effect on liver weight in ddY mouse at 10 mg/kg/day, po after 14 to 15 days; type: functional
Mus musculus [11] = assay: Reduction of visceral fat in ddY mouse at 10 mg/kg/day, po after 14 to 15 days; type: functional
Mus musculus [12] = assay: Reduction of mesenteric fat in ddY mouse at 50 mg/kg/day, po after 14 to 15 days; type: functional
Mus musculus [13] = assay: Reduction of visceral fat in ddY mouse at 0.1 mg/kg/day, po after 14 to 15 days; type: functional
Mus musculus [14] = assay: Effect on liver weight in ddY mouse at 12.5 mg/kg/day, po after 14 to 15 days; type: functional
Mus musculus [15] = assay: Reduction of visceral fat in ddY mouse at 1 mg/kg/day, po after 14 to 15 days; type: functional
Mus musculus [16] = assay: Effect on liver weight in ddY mouse at 25 mg/kg/day, po after 14 to 15 days; type: functional
Mus musculus [17] = assay: Effect on food intake in ddY mouse at 12.5 mg/kg/day, po after 14 to 15 days; type: functional
Mus musculus [18] = assay: Effect on food intake in ddY mouse at 25 mg/kg/day, po after 14 to 15 days; type: functional
Mus musculus [19] = assay: Reduction of epididymal fat in ddY mouse at 25 mg/kg/day, po after 14 to 15 days; type: functional
Mus musculus [20] = assay: Reduction of paranephric fat in ddY mouse at 1 mg/kg/day, po after 14 to 15 days; type: functional
Mus musculus [21] = assay: Effect on free fatty acid in ddY mouse plasma at 1 mg/kg/day, po after 14 to 15 days; type: functional
Mus musculus [22] = assay: Effect on liver triglyceride in ddY mouse at 50 mg/kg/day, po after 14 to 15 days; type: functional
Mus musculus [23] = assay: Reduction of paranephric fat in ddY mouse at 50 mg/kg/day, po after 14 to 15 days; type: functional
Mus musculus [24] = assay: Effect on plasma triglyceride in ddY mouse at 1 mg/kg/day, po after 14 to 15 days; type: functional
Mus musculus [25] = assay: Reduction of mesenteric fat in ddY mouse at 1 mg/kg/day, po after 14 to 15 days; type: functional
Mus musculus [26] = assay: Effect on liver triglyceride in ddY mouse at 1 mg/kg/day, po after 14 to 15 days; type: functional
Mus musculus [27] = assay: Effect on plasma triglyceride in ddY mouse at 12.5 mg/kg/day, po after 14 to 15 days; type: functional
Mus musculus [28] = assay: Reduction of mesenteric fat in ddY mouse at 25 mg/kg/day, po after 14 to 15 days; type: functional
Mus musculus [29] = assay: Effect on liver weight in ddY mouse at 0.1 mg/kg/day, po after 14 to 15 days; type: functional
Mus musculus [30] = assay: Effect on liver weight in ddY mouse at 1 mg/kg/day, po after 14 to 15 days; type: functional
Mus musculus [31] = assay: Reduction of epididymal fat in ddY mouse at 0.1 mg/kg/day, po after 14 to 15 days; type: functional
Mus musculus [32] = assay: Effect on free fatty acid in ddY mouse plasma at 50 mg/kg/day, po after 14 to 15 days; type: functional
Mus musculus [33] = assay: Effect on liver weight in ddY mouse at 50 mg/kg/day, po after 14 to 15 days; type: functional
Mus musculus [34] = assay: Reduction of mesenteric fat in ddY mouse at mg/kg/day, po after 14 to 15 days; type: functional
Mus musculus [35] = assay: Reduction of visceral fat in ddY mouse at 25 mg/kg/day, po after 14 to 15 days; type: functional
Mus musculus [36] = assay: Effect on free fatty acid in ddY mouse plasma at 0.1 mg/kg/day, po after 14 to 15 days; type: functional
Mus musculus [37] = assay: Reduction of mesenteric fat in ddY mouse at 0.1 mg/kg/day, po after 14 to 15 days; type: functional
Liver = assay: Increase in expression of PPAR alpha mRNA level in liver tissue of orally dosed ddY mouse, after 24 hrs; type: functional, organism-based
Mus musculus [38] = assay: Effect on food intake in ddY mouse at 50 mg/kg/day, po after 14 to 15 days; type: functional
Mus musculus [39] = assay: Reduction of epididymal fat in ddY mouse at 12.5 mg/kg/day, po after 14 to 15 days; type: functional
Mus musculus [40] = assay: Effect on liver triglyceride in ddY mouse at 12.5 mg/kg/day, po after 14 to 15 days; type: functional
Mus musculus [41] = assay: Reduction of visceral fat in ddY mouse at 50 mg/kg/day, po after 14 to 15 days; type: functional
Mus musculus [42] = assay: Effect on free fatty acid in ddY mouse plasma at 12.5 mg/kg/day, po after 14 to 15 days; type: functional
Mus musculus [43] = assay: Effect on food intake in ddY mouse at 0.1 mg/kg/day, po after 14 to 15 days; type: functional
Mus musculus [44] = assay: Effect on total plasma cholesterol in ddY mouse at 12.5 mg/kg/day, po after 14 to 15 days; type: functional
Mus musculus [45] = assay: Reduction of epididymal fat in ddY mouse at 1 mg/kg/day, po after 14 to 15 days; type: functional
Mus musculus [46] = assay: Effect on total plasma cholesterol in ddY mouse at 50 mg/kg/day, po after 14 to 15 days; type: functional
Mus musculus [47] = assay: Effect on total plasma cholesterol in ddY mouse at 1 mg/kg/day, po after 14 to 15 days; type: functional
Mus musculus [48] = assay: Reduction of epididymal fat in ddY mouse at 50 mg/kg/day, po after 14 to 15 days; type: functional
Mus musculus [49] = assay: Reduction of paranephric fat in ddY mouse at 0.1 mg/kg/day, po after 14 to 15 days; type: functional
Mus musculus [50] = assay: Effect on plasma triglyceride in ddY mouse at 50 mg/kg/day, po after 14 to 15 days; type: functional
Mus musculus [51] = assay: Effect on total plasma cholesterol in ddY mouse at 0.1 mg/kg/day, po after 14 to 15 days; type: functional
Mus musculus [52] = assay: Reduction of paranephric fat in ddY mouse at 12.5 mg/kg/day, po after 14 to 15 days; type: functional
Mus musculus [53] = assay: Effect on food intake in ddY mouse at 1 mg/kg/day, po after 14 to 15 days; type: functional
Mus musculus [54] = assay: Effect on liver triglyceride in ddY mouse at 0.1 mg/kg/day, po after 14 to 15 days; type: functional
Mus musculus [55] = assay: Reduction of paranephric fat in ddY mouse at 25 mg/kg/day, po after 14 to 15 days; type: functional
Mus musculus [56] = assay: Reduction of visceral fat in ddY mouse at 12.5 mg/kg/day, po after 14 to 15 days; type: functional
Mus musculus [57] = assay: Effect on plasma triglyceride in ddY mouse at 0.1 mg/kg/day, po after 14 to 15 days; type: functional

## O=C(O)/C=C/c1ccc(O)cc1 [COUMARIC ACID]
Mus musculus [1]
  Activity: 4.3 g/day
Mus musculus [2]
  Activity: 307 mg
Mus musculus [3]
  Activity: 143 mg/dL
Mus musculus [4]
  Activity: 58.2 mg/g
Mus musculus [5]
  Activity: 847 mg
Mus musculus [6]
  Activity: 1.67 mEq/L
Mus musculus [7]
  Activity: 106 mg/dL
Mus musculus [8]
  Activity: 761 mg
Mus musculus [9]
  Activity: 162 mg/dL
Mus musculus [10]
  Activity: 1640 mg
Mus musculus [11]
  Activity: 1920 mg

## O=c1c(O)c(-c2ccc(O)cc2)oc2cc(O)cc(O)c12 [KAEMPFEROL]
Mus musculus [1]
  Activity: 4.2 g/day
Mus musculus [2]
  Activity: 418 mg
Mus musculus [3]
  Activity: 149 mg/dL
Mus musculus [4]
  Activity: 60.3 mg/g
Mus musculus [5]
  Activity: 896 mg
Mus musculus [6]
  Activity: 1.72 mEq/L
Mus musculus [7]
  Activity: 110 mg/dL
Mus musculus [8]
  Activity: 804 mg
Mus musculus [9]
  Activity: 139 mg/dL
Mus musculus [10]
  Activity: 1520 mg
Mus musculus [11]
  Activity: 2120 mg

## O=c1c(O[C@@H]2O[C@H](CO)[C@@H](O)[C@H](O)[C@H]2O)c(-c2ccc(O)cc2)oc2cc(O)cc(O)c12 [ASTRAGALIN]
Mus musculus [1]
  Activity: 4.34 g/day
Mus musculus [2]
  Activity: 293 mg
Mus musculus [3]
  Activity: 119 mg/dL
Mus musculus [4]
  Activity: 64.8 mg/g
Mus musculus [5]
  Activity: 797 mg
Mus musculus [6]
  Activity: 1.7 mEq/L
Mus musculus [7]
  Activity: 99 mg/dL
Mus musculus [8]
  Activity: 680 mg
Mus musculus [9]
  Activity: 113 mg/dL
Mus musculus [10]
  Activity: 1640 mg
Mus musculus [11]
  Activity: 1770 mg

## O=C(/C=C/c1ccc(O)cc1)OC[C@H]1O[C@@H](Oc2c(-c3ccc(O)cc3)oc3cc(O)cc(O)c3c2=O)[C@H](O)[C@@H](O)[C@@H]1O [TILIROSIDE]
Mus musculus [12]
  Activity: 812 mg
Mus musculus [13]
  Activity: 1660 mg
Mus musculus [14]
  Activity: 1590 mg
Mus musculus [1]
  Activity: 5.3 g/day and 4.22 g/day
Mus musculus [15]
  Activity: 1060 mg
Mus musculus [16]
  Activity: 1590 mg and 1680 mg
Mus musculus [17]
  Activity: 5.7 g/day
Mus musculus [18]
  Activity: 5 g/day and 5.4 g/day
Mus musculus [2]
  Activity: 132 mg and 266 mg
Mus musculus [19]
  Activity: 918 mg and 558 mg
Mus musculus [20]
  Activity: 141 mg
Mus musculus [21]
  Activity: 1.01 mEq/L
Mus musculus [22]
  Activity: 63.9 mg/g
Mus musculus [23]
  Activity: 330 mg
Mus musculus [24]
  Activity: 95 mg/dL
Mus musculus [25]
  Activity: 509 mg
Mus musculus [26]
  Activity: 30.8 mg/g
Mus musculus [27]
  Activity: 169 mg/dL
Mus musculus [28]
  Activity: 738 mg and 508 mg
Mus musculus [29]
  Activity: 1490 mg
Mus musculus [30]
  Activity: 1390 mg
Mus musculus [31]
  Activity: 716 mg
Mus musculus [32]
  Activity: 1.44 mEq/L
Mus musculus [33]
  Activity: 1560 mg
Mus musculus [34]
  Activity: 745 mg
Mus musculus [35]
  Activity: 2050 mg and 1260 mg
Mus musculus [36]
  Activity: 1.17 mEq/L
Mus musculus [37]
  Activity: 662 mg
Liver
  Activity: Active
Mus musculus [38]
  Activity: 5 g/day
Mus musculus [39]
  Activity: 1140 mg
Mus musculus [40]
  Activity: 60.4 mg/g
Mus musculus [5]
  Activity: 350 mg and 626 mg
Mus musculus [41]
  Activity: 1950 mg
Mus musculus [42]
  Activity: 1.5 mEq/L
Mus musculus [43]
  Activity: 4.7 g/day
Mus musculus [44]
  Activity: 156 mg/dL
Mus musculus [45]
  Activity: 407 mg
Mus musculus [46]
  Activity: 144 mg/dL
Mus musculus [47]
  Activity: 102 mg/dL
Mus musculus [48]
  Activity: 811 mg
Mus musculus [49]
  Activity: 284 mg
Mus musculus [50]
  Activity: 161 mg/dL
Mus musculus [51]
  Activity: 108 mg/dL
Mus musculus [52]
  Activity: 350 mg
Mus musculus [7]
  Activity: 93 mg/dL
Mus musculus [8]
  Activity: 516 mg and 561 mg
Mus musculus [53]
  Activity: 5 g/day
Mus musculus [54]
  Activity: 46.7 mg/g
Mus musculus [10]
  Activity: 1500 mg
Mus musculus [55]
  Activity: 394 mg and 194 mg
Mus musculus [11]
  Activity: 998 mg and 1450 mg
Mus musculus [56]
  Activity: 2240 mg
Mus musculus [57]
  Activity: 119 mg/dL
